Consider one compound from patent publication US20240382465A1, “AROMATIC ACETYLENE DERIVATIVE, AND PREPARATION METHOD THEREFOR AND USE THEREOF” (priority 2021, published 2024).

Data set [1] has as its system Klebsiella pneumoniae ATCC 51504. The class given is in vivo, CD-1 female mice. To be noted: CD-1 mice. How it is done:
The efficacy of the compounds of the present disclosure against pulmonary infection caused by Klebsiella pneumoniae ATCC 51504 was determined by the following method. The experimental process is briefly described as follows: The experimental day of inoculating Klebsiella pneumoniae ATCC 51504 was defined as Day 0. On Day −4 and Day −1, CD-1 female mice (6-8 weeks old, purchased from VitalRiver Experimental Animal Technology Co., Ltd., divided into 3 groups, 5 animals in each group) were intraperitoneally injected with cyclophosphamide to induce an immunosuppressive state in mice. Klebsiella pneumoniae ATCC 51504 cells were cultured in advance on a Muaeller-Hinton agar culture plate in a 37° C. incubator overnight. The single colonies were collected, suspended in physiological saline, and adjusted to the required concentration using a turbidity meter. CD-1 female mice were inoculated via intranasal instillation. Each mouse was inoculated with 50 μL of bacterial solution, with an inoculation volume of 1×10^7 CFU/mouse. Two hours after infection, CD-1 female mice were intravenously administered with compound 17 and compound 32 at 150 mg/kg (solvent: 10% HP-β-CD in Sterile Water for Injection). 24 hours after infection, CD-1 female mice were euthanized. The lung tissue was taken, homogenized with physiological saline, and then diluted 10 times in a gradient for a total of 5 times. Then, 10 μL of lung tissue homogenate of each dilution ratio was taken, and inoculated into bacterial culture plates, which were incubated in a 37° C. incubator overnight, then photographed and saved. A culture plate with an appropriate dilution ratio was selected to count the number of colonies and calculate the bacterial load in the lung tissue to evaluate the efficacy of the drug in inhibiting bacteria. The determination results of the efficacy of the compounds of the present disclosure on pulmonary infection caused by Klebsiella pneumoniae are shown in Tables 4 and 5 below.

Data set [2] in a line: Pharmacokinetic assay in mice. The class given is in vivo. To be noted: ICR mice, 15 mg/kg, IV. How it is done:
ICR mice were used as test animals. The injected compounds 17 and 32 of the present disclosure were measured using the LC/MS/MS method to determine the drug concentrations in plasma at different times, in order to study the pharmacokinetic characteristics of the compounds of the present disclosure in mice.
ICR mice, male, weighing 27.8-38 g, were purchased from VitalRiver Laboratory Animal Technology Co., Ltd.
An appropriate amount of the pharmaceutical compound was weighed, added with an appropriate amount of 10% HP-β-CD, vortexed, sonicated for 20 minutes to dissolve the particles, and filtered (PTFE, […]) to obtain […] of a colorless solution.
ICR mice were divided into groups of injection of each test compound (nine mice in each group), fasted overnight, then administered by injection (IV, at an amount of 15 mg/kg and a volume of 5 mL/kg), and fed 4 hours after administration.
About 0.1 mL of blood was collected from the orbit before administration and 0.083 hours, 0.25 hours, 0.5 hours, 1 hour, 2 hours, 4 hours, 8 hours, 12 hours and 24 hours after administration. The whole blood samples were placed in EDTA-K2-containing anticoagulant tubes. After collected, the blood samples were placed on ice, and centrifuged to separate plasma (centrifugation conditions: 1500 g, 10 minutes). The collected plasma was stored at −40 to −20° C. before analysis.
The content of the compound to be tested in the plasma of mice after injection was determined using LC-MS/MS.

The next data set has as its system K. pneumoniae ATCC13883. Briefly: Antibacterial activity, MIC by broth microdilution (CLSI). The class given is cell-based. Particulars: Klebsiella pneumoniae; K. pneumoniae ATCC13883, 35° C., 18 to 24 hours; read-out: MIC(K. Pneumoniae). The procedure, abridged: (§1)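 Broth microdilution per CLSI, compound at 64-0.06 μg/mL final in twofold steps (1% DMSO from 100× working solutions). Inoculum 5×10^5 cfu/ml; plates incubated at 35° C for 18-24 hours.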
A general note: Dilution methods test growth across graded concentrations, often in twofold steps.

Another data set deals with E. coli ATCC 25922. The data set is described as above. The class given is cell-based. Particulars: Escherichia coli, ATCC25922; E. coli ATCC 25922, 35° C., 18 to 24 hours; read-out: MIC(E. coli). The procedure, abridged: as §1
Data set [3] deals with recombinant Pseudomonas aeruginosa LpxC (Pseudomonas aeruginosa (strain ATCC 15692 / DSM 22644 / CIP 104116 / JCM 14847 / LMG 12228 / 1C / PRS 101 / PAO1), UniProt P47205). Briefly: Inhibition of LpxC enzymatic activity (fluorescamine assay). The class given is biochemical. To be noted: recombinant P. aeruginosa LpxC 5 nM, substrate 10 μM, 25° C., 120 minutes; read-out: IC50. An outline of the steps:
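Recombinant P. aeruginosa LpxC (5 nM) with substrate UDP-3-O-(R-3-hydroxydecanoyl)-GlcNAc (10 μM), 120 min at 25 °C; compound 8 points, 4-fold dilution, 0.61-10,000 nM. Product detected by fluorescamine (ex 390/em 495 nm) after stopping with pH 8.0 phosphate; % inhibition versus DMSO control.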

Converted amounts (≈) assume the structure as drawn.

As usually defined, the clearance is the volume of plasma or blood freed of the substance per unit of time. For orientation: half-life means the time in which the quantity being followed falls by half. As usually defined, the MIC is the lowest concentration that inhibits growth of the organism. One may read the IC50 as the point on the concentration scale where inhibition reaches its midpoint.

In the case of `C[C@H](O)c1nccn1Cc1cc(-c2ccc(C#Cc3ccc(CN4CC(CC(=O)O)C4)cc3)cc2)on1` [Example 32, (S)-2-(1-(4-((4-(3-((2-(1-hydroxyethyl)-1H-imidazol-1-yl)methyl)isoxazol-5-yl)phenyl)ethynyl)benzyl)azetidin-3-yl)acetic acid], in data set [1] (150 mg/kg intravenous), the “Change in the body weight of the mice” value is “no significant change” and the “Reduction of total bacterial load of Klebsiella pneumoniae ATCC 51504 in the lungs compared with the control group” value is 4.24 log value. In addition, the “Bacterial load in lung, LOG (CFU/mouse), Mean” value in data set [1] (150 mg/kg intravenous 2 hours after infection, lungs taken 24 hours after infection) was 4.42 LOG (CFU/mouse). Moreover, in data set [2], the “Pharmacokinetic properties (conclusion)” value was “good pharmacokinetic properties”. In addition, the AUC(0-inf) in data set [2] (male, mouse, plasma, read-out: Area under curve AUC0-∞) is 20300 ng·h/mL. In data set [2] (male, mouse, plasma, read-out: Clearance CL), the clearance was found to be 12.3 mL/min/kg. Besides, in data set [2] (male, mouse, plasma, read-out: Half life T½ (converted)), the half-life was 72.6 min. The Vd in data set [2] (male, mouse, plasma, read-out: Volume of distribution Vdss) worked out at 0.612 L/kg. Besides, in the data set with K. pneumoniae ATCC13883, the minimum inhibitory concentration (MIC) is 4 µg/mL (≈ 8.06 µM). In addition, the minimum inhibitory concentration (MIC) with E. coli ATCC 25922 came to 2 µg/mL (≈ 4.03 µM). The IC50 in data set [3] is 19.8 nM.
